Experimental data: US9271977B2, “Sanglifehrin derivatives and methods for their production” (NeuroVive Pharmaceutical AB, priority 2010, dated 2016)
Read-outs that look alike come from different tables or passages of the source.

Legend:
[1] = tested on: HCV genotype 1b I389Iuc-ubi-neo/NS3-3′/5.1 replicon in Huh5.2 cells; test: microbe, parasite or virus in culture; type: cell-based, Hepatitis C Virus; details: for Selectivity index (CC50/EC50): Huh5.2 replicon assay
Description: (§1) Antiviral efficacy against genotype 1 HCV may be tested as follows: One day before addition of the test article, Huh5.2 cells, containing the HCV genotype 1b I389Iuc-ubi-neo/NS3-3′/5.1 replicon (Vrolijk et al., 2003) and subcultured in cell growth medium [DMEM (Cat No. 41965039) supplemented with 10% FCS, 1% non-essential amino acids (11140035), 1% penicillin/streptomycin (15140148) and 2% Geneticin (10131027); Invitrogen] at a ratio of 1.3-1.4 and grown for 3-4 days in […] tissue culture flasks (Techno Plastic Products), were harvested and seeded in assay medium (DMEM, 10% FCS, 1% non-essential amino acids, 1% penicillin/streptomycin) at a density of 6500 cells/well (100 uL/well) in 96-well tissue culture microtitre plates (Falcon, Beckton Dickinson for evaluation of the anti-metabolic effect and CulturPlate, Perkin Elmer for evaluation of antiviral effect). The microtitre plates are incubated overnight (37° C., 5% CO2, 95-99% relative humidity), yielding a non-confluent cell monolayer.
(§2) Dilution series are prepared; each dilution series is performed in at least duplicate. Following assay setup, the microtitre plates are incubated for 72 hours (37° C., 5% CO2, 95-99% relative humidity).
For the evaluation of antiviral effects, assay medium is aspirated and the cell monolayers are washed with PBS. The wash buffer is aspirated, 25 uL of Glo Lysis Buffer (Cat. No. E2661, Promega) is added after which lysis is allowed to proceed for 5 min at room temperature. Subsequently, 50 uL of Luciferase Assay System (Cat. No. E1501, Promega) is added and the luciferase luminescence signal is quantified immediately (1000 ms integration time/well, Safire^2, Tecan). Relative luminescence units are converted to percentage of untreated controls.
(§3) The selectivity index (SI), indicative of the therapeutic window of the compound, is calculated as CC50/EC50.
(§4) Compounds were analysed in the replicon assay using Huh5.2 cells as described in the General Methods.

[2] = in vitro; details: human
Description: as §1, §2
(§5) For the evaluation of anti-metabolic effects, the assay medium is aspirated, replaced with 75 uL of a 5% MTS (Promega) solution in phenol red-free medium and incubated for 1.5 hours (37° C., 5% CO2, 95-99% relative humidity). Absorbance is measured at a wavelength of 498 nm (Safire^2, Tecan) and optical densities (OD values) are converted to percentage of untreated controls.
as §3, §4

[3] = tested on: HBV; details: cited from earlier work
[4] = tested on: HIV-1; details: clinical, cited from earlier work
[5] = human, in vivo; cited from earlier work
[6] = Microsome stability assay, human liver microsomes; type: in vitro ADME; details: for stability in human liver microsomes compared to sanglifehrin A (in words): compared to sanglifehrin A (5)
Description: (§6) Mouse or human liver microsomes were diluted with buffer C (0.1 M Potassium Phosphate buffer, 1.0 mM EDTA, pH 7.4) to a concentration of 2.5 mg/mL. Microsomal stability samples were then prepared by adding 50 uL of 5 uM compound spiking solution (0.5 uL 10 mM DMSO stock solution in 9.5 uL ACN, added to 990 uL Buffer C) to 50 μL of microsomal solution (2.5 mg/mL), 110 uL Buffer C and mixed well. All samples were pre-incubated for approximately 15 minutes at 37° C. Following this, the reaction was initiated by adding 40 uL of the NADPH solution (12.5 mM) with gentle mixing. Aliquots (40 uL) were removed at 0, 15, 30, 45 and 60 minutes and quenched with ACN containing internal standard (120 uL). Protein was removed by centrifugation (4000 rpm, 15 min) and the sample plate analysed for compound concentration by LC-MS/MS. Half-lives were then calculated by standard methods, comparing the concentration of analyte wth the amount originally present.
(§7) Stability of the compounds in human and mouse liver microsomes was analysed as described in the General Methods. Sanglifehrin A, 5 was included as a comparison.

[7] = Microsome stability assay, mouse liver microsomes; type: in vitro ADME; details: for stability in mouse liver microsomes compared to sanglifehrin A (in words): compared to sanglifehrin A (5)
Description: as §6, §7

[8] = tested on: Huh5.2 cells; test: Anti-metabolic effect (MTS) in the replicon cell line; details: Huh5.2 cells, 72 hours, MTS metabolic activity
Description: as §1, §2, §5, §3, §4

[9] = biological target: cyclophilin A (CyPA) (Homo sapiens, UniProt P62937); details: relative to CsA; cited from earlier work
[10] = Hepatitis C virus, Huh-5-2, Huh5.2 cells, HCV genotype 1b replicon, 72 hours, luciferase signal, read-out: EC50
[11] = pH 7.4, human liver microsomes, NADPH, 37° C.
[12] = pH 7.4, mouse liver microsomes, NADPH, 37° C.
[13] = Huh5.2 cells, HCV genotype 1b replicon, 72 hours, luciferase signal, read-out: EC50
[14] = human liver microsomes, NADPH, 37° C.
[15] = mouse liver microsomes, NADPH, 37° C.

cyclophilin A (CyPA), sequence (P62937 whole entry): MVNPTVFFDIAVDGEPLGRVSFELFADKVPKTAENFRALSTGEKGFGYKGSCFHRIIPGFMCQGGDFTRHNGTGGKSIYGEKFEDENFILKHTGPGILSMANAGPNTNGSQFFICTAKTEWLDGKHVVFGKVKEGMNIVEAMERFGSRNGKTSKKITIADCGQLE

Compound: CC(=O)CC[C@H]1C(=O)N[C@@H](C(C)C)C(=O)N[C@@H](Cc2cccc(O)c2)C(=O)N2CCC[C@H](N2)C(=O)O[C@H](/C(C)=C/CO)C/C=C/C=C/[C@H](O)[C@H](C)[C@H]1O [Hydroxymacrocycle, 6, reference compound]
- EC50 [1, 10]: 8.4 µM
- Selectivity index (CC50/EC50) [1]: 9.9
- CC50 [2]: 83.6 µM

Compound: C/C=C/C[C@@H](C)[C@@H](O)[C@H]1C(=O)N[C@@H](CC)C(=O)N(C)[C@H](C)C(=O)N(CC)[C@@H](C(C)C)C(=O)N[C@@H](C(C)C)C(=O)N(C)[C@@H](CC(C)C)C(=O)N[C@@H](C)C(=O)N[C@H](C)C(=O)N(C)[C@@H](CC(C)C)C(=O)N(C)[C@@H](CC(C)C)C(=O)N(C)[C@@H](C(C)C)C(=O)N1C [DEBIO-025]
- IC50 ([3]; Ptak et al. 2008, read-out: IC50 against HBV): 4.1 µM
- reduction of HIV-1 RNA levels (in words) ([4]; 27 of the treated patients (Steyn et al., 2006)): no reduction
- reduction of HIV-1 RNA levels ([4]; in nine patients (Steyn et al., 2006)): ≥ 0.5 log 10 copies/mL
- reduction of HIV-1 RNA levels ([4]; in two patients (Steyn et al., 2006)): > 1 log 10 copies/mL
- discontinuation of treatment caused by hyperbilirubinemia [5]: 4 out of 16

Compound: CC[C@H]1C[C@H](C)[C@@]2(NC1=O)O[C@@H](C[C@H](O)[C@@H](C)CC/C=C/C=C(\C)[C@@H]1C/C=C/C=C/[C@H](O)[C@H](C)[C@@H](O)[C@@H](CCC(C)=O)C(=O)N[C@@H](C(C)C)C(=O)N[C@@H](Cc3ccccc3)C(=O)N3CCCC(N3)C(=O)O1)[C@H](C)[C@H](O)[C@@H]2C (stereo partly shown) [Compound 18, 61-Deshydroxy Sanglifehrin A]
- EC50 [1, 10]: 3.4 µM
- CC50 [2]: 11.7 µM
- stability in human liver microsomes compared to sanglifehrin A (in words) [6]: increased stability
- half-life at 1 µM [6, 11]: 7.64 min
- half-life at 1 µM [7, 12]: 3.46 min

Compound: CC[C@H]1C[C@H](C)[C@@]2(NC1=O)O[C@@H](C[C@H](O)[C@@H](C)CC/C=C/C=C(\C)[C@@H]1C/C=C/C=C/[C@H](O)[C@H](C)[C@@H](O)[C@@H](CCC(C)=O)C(=O)N[C@@H](C(C)C)C(=O)N[C@@H](Cc3cccc(O)c3)C(=O)N3CCC[C@H](N3)C(=O)O1)[C@H](C)[C@H](O)[C@@H]2C [Sanglifehrin A, 5, Sanglifehrin A, reference compound]
- potency in the Huh5.2 replicon assay (in words) [1]: less potent
- EC50 [1, 13]: 0.318 µM
- CC50 [8]: 9.1 µM
- Human liver microsome half life [6, 14]: 6.38 min
- Mouse liver microsome half life [7, 15]: 6.15 min
- higher affinity for CyPA compared to CsA [9]: approximately 20 fold

Compound: C/C=C/CC(C)C(O)C1C(=O)NC(CC)C(=O)N(C)CC(=O)N(C)C(CC(C)C)C(=O)NC(C(C)C)C(=O)N(C)C(CC(C)C)C(=O)NC(C)C(=O)NC(C)C(=O)N(C)C(CC(C)C)C(=O)N(C)C(CC(C)C)C(=O)N(C)C(C(C)C)C(=O)N1C (stereo not shown) [Cyclosporine A, 1, Cyclosporine A, reference compound]
- potency in the Huh5.2 replicon assay (in words) [1]: less potent
- EC50 ([1]; Hepatitis C virus, Huh-5-2, 72 h): 0.2 µM
- IC50 against HBV ([3]; Xie et al., 2007): > 1.3 µg/mL

Compound: CC[C@H]1C[C@H](C)[C@@]2(NC1=O)O[C@@H](C[C@H](O)[C@@H](C)CC/C=C/C=C(\C)[C@@H]1C/C=C/C=C/[C@H](O)[C@H](C)[C@@H](O)[C@@H](CCC(C)=O)C(=O)N[C@@H](C(C)C)C(=O)N[C@@H](Cc3cc(O)c(F)c(F)c3)C(=O)N3CCCC(N3)C(=O)O1)[C@H](C)[C@H](O)[C@@H]2C (stereo partly shown) [Compound 15, 62,63-Fluoro Sanglifehrin A]
- potency in the Huh5.2 replicon assay (in words) [1]: very potent
- EC50 [1, 10]: 0.195 µM
- Selectivity index (CC50/EC50) [1]: 88
- CC50 [2]: 16.6 µM
- stability in human liver microsomes compared to sanglifehrin A (in words) [6]: increased stability
- half-life [6, 11]: 10.8 min
- stability in mouse liver microsomes compared to sanglifehrin A (in words) [7]: more stable
- half-life [7, 12]: 9.22 min

Compound: CC[C@H]1C[C@H](C)[C@@]2(NC1=O)O[C@@H](C[C@H](O)[C@@H](C)CC/C=C/C=C(\C)[C@@H]1C/C=C/C=C/[C@H](O)[C@H](C)[C@@H](O)[C@@H](CCC(C)=O)C(=O)N[C@@H](C(C)C)C(=O)N[C@@H](Cc3cc(O)cc(F)c3)C(=O)N3CCCC(N3)C(=O)O1)[C@H](C)[C@H](O)[C@@H]2C (stereo partly shown) [Compound 14, 63-Fluoro Sanglifehrin a]
- potency in the Huh5.2 replicon assay (in words) [1]: very potent
- EC50 [1, 10]: 0.135 µM
- Selectivity index (CC50/EC50) [1]: 121
- CC50 [2]: 12.8 µM
- stability in human liver microsomes compared to sanglifehrin A (in words) [6]: increased stability
- half-life [6, 11]: 9.32 min
- stability in mouse liver microsomes compared to sanglifehrin A (in words) [7]: more stable
- half-life [7, 12]: 9.78 min

Compound: CC[C@H]1C[C@H](C)[C@@]2(NC1=O)O[C@@H](C[C@H](O)[C@@H](C)CC/C=C/C=C(\C)[C@@H]1C/C=C/C=C/[C@H](O)[C@H](C)[C@@H](O)[C@@H](CCC(C)=O)C(=O)N[C@@H](C(C)C)C(=O)N[C@@H](Cc3ccc(C)c(O)c3)C(=O)N3CCCC(N3)C(=O)O1)[C@H](C)[C@H](O)[C@@H]2C (stereo partly shown) [Compound 17, 62-Methyl Sanglifehrin A]
- potency in the Huh5.2 replicon assay (in words) [1]: very potent
- EC50 [1, 10]: 0.083 µM
- Selectivity index (CC50/EC50) [1]: 143
- CC50 [2]: 11.6 µM
- stability in human liver microsomes compared to sanglifehrin A (in words) [6]: increased stability
- half-life [6, 11]: 9.5 min
- stability in mouse liver microsomes compared to sanglifehrin A (in words) [7]: more stable
- half-life [7, 12]: 9.67 min

Compound: 58-des(3-hydroxyphenyl)-58-(3-hydroxy(2-pyridyl)-sanglifehrin A [Compound 19]
- EC50 [1, 13]: 24.3 µM
- CC50 [8]: 48.1 µM
- stability in human liver microsomes compared to sanglifehrin A (in words) [6]: increased stability
- Human liver microsome half life [6, 14]: 10.37 min
- Mouse liver microsome half life [7, 15]: 4.71 min

Compound: CC[C@H]1C[C@H](C)[C@@]2(NC1=O)O[C@@H](C[C@H](O)[C@@H](C)CC/C=C/C=C(\C)[C@@H]1C/C=C/C=C/[C@H](O)[C@H](C)[C@@H](O)[C@@H](CCC(C)=O)C(=O)N[C@@H](C(C)C)C(=O)N[C@@H](Cc3ccc(F)c(O)c3)C(=O)N3CCCC(N3)C(=O)O1)[C@H](C)[C@H](O)[C@@H]2C (stereo partly shown) [Compound 16, 62-Fluoro Sanglifehrin A]
- potency in the Huh5.2 replicon assay (in words) [1]: very potent
- EC50 [1, 10]: 0.89 µM
- Selectivity index (CC50/EC50) [1]: 32
- CC50 [2]: 29.7 µM
- stability in human liver microsomes compared to sanglifehrin A (in words) [6]: increased stability
- half-life [6, 11]: 6.61 min
- half-life [7, 12]: 5.48 min
